Experimental data as given in EP0063946A1, “Diagnosis of kidney function” (priority 1981, dated 1982).

Tests used:
[1] = Animal biodistribution and clearance studies in rats; assay type: in vivo
Method: Samples for animal biodistribution studies were administered 1-2 hours post preparation.
Comparative data for Hippuran, Tc-99m TDG and Tc-99m DTPA in rats is set out in Table II.

[2] = background statement; cited from earlier work

O=C(O)CNC(=O)c1ccccc1[131I] [Hippuran, sodium iodohippurate]
Clearance half time [1]: 10.4 min
% in urine at 30 min p.i. ([1]; 30 min p.i.): 82.6%
2 hour dissection (% injected dose) Bladder ([1]; 2 hour dissection): 93.0 % injected dose
2 hour dissection (% injected dose) Intestine ([1]; 2 hour dissection): 2.5 % injected dose
2 hour dissection (% injected dose) Kidney ([1]; 2 hour dissection): 0.2 % injected dose
2 hour dissection (% injected dose) Liver ([1]; 2 hour dissection): 0.2 % injected dose
removed from the blood in a single pass through the kidney [2]: About 80%
